The values that follow come from PMC5444710, “Enhancement of radiosensitivity by the novel anticancer quinolone derivative vosaroxin in preclinical glioblastoma models” (Oncotarget, 2017).

SMILES strings stand for the structures. Where a SMILES comes first, the peptide text is derived from it. The star is where a group is joined. Cbz = O=C(OCc1ccccc1)*; CH2F = FC*

Assay [1] concerns U87MG, U251, and T98G cells. The assay is described as follows: Autophagy: acidic vesicular organelle (AVO) staining. It is filed as cell-based, human. The note with it: RT 4 Gy, 24 hours. The text has this:
As a marker of autophagy we evaluated the presence of AVOs after staining of cell cultures with LysoTracker® Red DND-99 kit (Life Technologies Italia, Monza, Italy) according to the manufacturer’s instructions. The intensity of the red fluorescence is proportional to the degree of acidity. The percentage of autophagic cells was quantified with the Tali® Image-Based Cytometer (Life Technologies) measuring fluorescence emission at 590 nm with fluorescence excitation at 577 nm. The results were expressed as the percentage of cell AVOs stained in controls and in treated cultures.

Assay [2] relates to luciferase-transfected U251 cells. The assay is described as follows: Orthotopic intra-brain model (DFS, OS).
In a further assay the test system is T98G xenografts. The assay is described as follows: Subcutaneous xenograft model: tumor weight and time to progression. It is filed as in vivo, female CD1-nu/nu mice. The note with it: T98G xenografts; day 35; VSR 10 mg/kg q 5 d for 5 wk IV; TMZ 16 mg/kg 5 consecutive days; RT single 4 Gy. As to the method: (§1) Female CD1-nu/nu mice, at 6 weeks of age, were purchased from Charles River (Milan, Italy) under the guidelines established by our institution (University of L’Aquila, Medical School and Science and Technology School Board Regulations, complying with Italian government regulation n.116, January 27, 1992, for the use of laboratory animals). All mice received subcutaneous flank injections (2 each) of 1 × 10^6 U251, U87MG, and T98G cells representing models for MGMT-negative and MGMT-positive cells. Tumor growth was assessed biweekly by measuring tumor diameters with a Vernier caliper (length × width). Tumor weight was calculated according to the formula tumor weight (mg) = tumor volume (mm^3) = d2 × D/2, where d and D are the shortest and longest diameters, respectively. The effects of the treatments were assessed as previously described. At about 10 days after the tumor injection, 30 mice with tumor volumes of 0.5–0.8 cm^3 were randomly divided into 6 groups (5 mice per group with 2 tumors each): (1) control (vehicle); (2) vosaroxin (10 mg/kg every 5 days for 5 weeks intravenous [IV] injection into tail vein; (3) radiotherapy (RT; 4 Gy delivered in a single fraction); (4) vosaroxin in combination with RT; (5) temozolomide (16 mg/kg 5 consecutive days) and (6) temozolomide in combination with RT. Anesthetized tumor-bearing mice received focal irradiation. Irradiation was delivered using an x-ray linear accelerator at a dose rate of 200 cGy/min at room temperature. All mice were shielded with a specially designed lead apparatus to allow irradiation to the right hind limb. At the end of the study (35 days after the start of treatments), animals were sacrificed by carbon dioxide inhalation and tumors were then removed surgically. Half of the tumor was directly frozen in liquid nitrogen for protein analysis and the other half was fixed in paraformaldehyde overnight for immunohistochemical analyses.
(§2) The following parameters were used to quantify the antitumor effects of different treatments as previously described: tumor volume, measured throughout the experiment; tumor weight, measured at the end of the experiment; tumor progression, defined as an increase of greater than 50% of tumor volume with respect to baseline; and time to progression (TTP), defined as the time until tumor progression was observed from baseline. Tumor size was measured with calipers and the TTP of a single tumor was calculated. TTP data were used to generate Kaplan-Meier curves for progression. This method of analysis was described previously, and may reduce both inter-subject variability resulting from differences in engraftment efficacy as well as intra-subject variability in response.
(§3) In vivo drug combination studies were evaluated using CalcuSyn. For CI calculations of dual administration, the values of % cell kill (%CK) for a fixed tumor volume were determined by the log CK (LCK). LCK was calculated as LCK = (T − C) / (3.32 × Td), where Td represented the mean control group doubling time required to reach a fixed tumor volume, expressed in days. T and C were the mean times in days required to reach the same fixed tumor volume in the treated group and the control group, respectively. CK was calculated as %CK = [1 − (1 − 10LCK)] × 100. Tumor growth delay (TGD) was calculated as %TGD = [(T − C) / C] × 100, where T and C were the same values as those reported by Bruzzese et al..

The subject of the next assay is U251 xenografts. The description is as above. It is filed as in vivo, female CD1-nu/nu mice. Particulars: U251 xenografts; day 35; VSR 10 mg/kg q 5 d for 5 wk IV; TMZ 16 mg/kg 5 consecutive days; RT single 4 Gy. As to the method:
as §1, §2, §3

The next assay deals with U87MG xenografts. The assay is described as above. Format: in vivo, female CD1-nu/nu mice. The note with it: U87MG xenografts; day 35; VSR 10 mg/kg q 5 d for 5 wk IV; TMZ 16 mg/kg 5 consecutive days; RT single 4 Gy. How it is done: as §1, §2, §3

Consider `Cn1cnc(N)c2ncnc1-2` [3-methyladenine], for which the “RT-induced AVO staining” value in assay [1] (5 μM) was “reduced”.

Take `Cn1nnc2c(C(N)=O)ncn2c1=O` [temozolomide]: the “Disease-free Survival HR (95% CI)” value in assay [2] (TMZ vs VSR) is listed as 2.0 (0.9–5.5). In assay [2] (TMZ vs VSR), the “Overall Survival HR (95% CI)” value was 3.0 (1.0–8.8). In assay [2] (orthotopic U251-luciferase, treated for 35 days starting 5 days after cell injection), the “mean time of recurrence (DFS) ± SE” value stood at 68.3 ± 5.4 days. The “final tumor weight reduction compared with vehicle controls” value is 25% with T98G xenografts, 54% in the assay with U251 xenografts and 53% in the assay with U87MG xenografts.

As for `COC(=O)C[C@H](NC(=O)[C@H](C)NC(=O)[C@@H](NC(=O)OCc1ccccc1)C(C)C)C(=O)CF` [z-Val-Ala-Asp(Ome)-fluoromethyl ketone] (Cbz-Val-Ala-Asp(OMe)-CH2F), the “RT-induced AVO staining” value in assay [1] (10 μM) is “further increased”.
